The record followed here is patent US11053218B2, “3-(1-oxoisoindolin-2-yl)piperidine-2,6-dione derivatives and uses thereof” (Novartis AG, priority 2017, dated 2021).

What all share (type): cell-based
For one assay, the target named is IKZF2 (Homo sapiens, UniProt Q96SW2+Q9UKS7). As to the kind of experiment: Prolabel quantification of IKZF2 protein levels in 293GT cells.
The target of another assay is IKZF1 (Homo sapiens, UniProt Q13422+Q96SW2). Put plainly: Prolabel quantification of IKZF1 protein levels in 293GT cells. Particulars: Prolabel assay, read-out: IKZF1 EC50.
Sequence of IKZF1 (Q13422 whole entry): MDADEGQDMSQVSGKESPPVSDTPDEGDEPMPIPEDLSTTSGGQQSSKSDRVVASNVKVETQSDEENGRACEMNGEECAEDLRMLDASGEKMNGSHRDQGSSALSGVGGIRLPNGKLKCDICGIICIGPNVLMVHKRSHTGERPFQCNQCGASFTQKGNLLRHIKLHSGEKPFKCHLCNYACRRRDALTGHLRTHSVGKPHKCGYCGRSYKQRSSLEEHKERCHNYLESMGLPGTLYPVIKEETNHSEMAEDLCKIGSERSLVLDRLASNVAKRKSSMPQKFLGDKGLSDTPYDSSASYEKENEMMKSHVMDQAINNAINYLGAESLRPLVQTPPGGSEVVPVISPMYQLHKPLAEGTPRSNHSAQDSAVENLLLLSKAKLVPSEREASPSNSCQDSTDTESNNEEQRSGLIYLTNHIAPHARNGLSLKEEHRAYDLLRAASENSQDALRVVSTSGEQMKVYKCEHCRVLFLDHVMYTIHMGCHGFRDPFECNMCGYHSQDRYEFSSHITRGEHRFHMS
Sequence of IKZF1 (Q96SW2 whole entry): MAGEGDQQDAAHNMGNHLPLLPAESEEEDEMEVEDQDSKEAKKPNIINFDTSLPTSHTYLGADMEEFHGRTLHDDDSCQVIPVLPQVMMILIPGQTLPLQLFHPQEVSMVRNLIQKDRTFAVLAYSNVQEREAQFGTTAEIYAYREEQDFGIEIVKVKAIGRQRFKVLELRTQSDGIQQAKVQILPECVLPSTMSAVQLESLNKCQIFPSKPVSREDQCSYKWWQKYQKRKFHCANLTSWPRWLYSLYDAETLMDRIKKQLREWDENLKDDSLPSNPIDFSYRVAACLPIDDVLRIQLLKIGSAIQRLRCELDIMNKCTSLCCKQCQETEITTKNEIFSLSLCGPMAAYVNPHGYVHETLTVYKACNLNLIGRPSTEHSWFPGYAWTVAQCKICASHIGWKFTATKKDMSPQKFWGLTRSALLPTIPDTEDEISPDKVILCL
Sequence of IKZF1 (Q16531 whole entry partner): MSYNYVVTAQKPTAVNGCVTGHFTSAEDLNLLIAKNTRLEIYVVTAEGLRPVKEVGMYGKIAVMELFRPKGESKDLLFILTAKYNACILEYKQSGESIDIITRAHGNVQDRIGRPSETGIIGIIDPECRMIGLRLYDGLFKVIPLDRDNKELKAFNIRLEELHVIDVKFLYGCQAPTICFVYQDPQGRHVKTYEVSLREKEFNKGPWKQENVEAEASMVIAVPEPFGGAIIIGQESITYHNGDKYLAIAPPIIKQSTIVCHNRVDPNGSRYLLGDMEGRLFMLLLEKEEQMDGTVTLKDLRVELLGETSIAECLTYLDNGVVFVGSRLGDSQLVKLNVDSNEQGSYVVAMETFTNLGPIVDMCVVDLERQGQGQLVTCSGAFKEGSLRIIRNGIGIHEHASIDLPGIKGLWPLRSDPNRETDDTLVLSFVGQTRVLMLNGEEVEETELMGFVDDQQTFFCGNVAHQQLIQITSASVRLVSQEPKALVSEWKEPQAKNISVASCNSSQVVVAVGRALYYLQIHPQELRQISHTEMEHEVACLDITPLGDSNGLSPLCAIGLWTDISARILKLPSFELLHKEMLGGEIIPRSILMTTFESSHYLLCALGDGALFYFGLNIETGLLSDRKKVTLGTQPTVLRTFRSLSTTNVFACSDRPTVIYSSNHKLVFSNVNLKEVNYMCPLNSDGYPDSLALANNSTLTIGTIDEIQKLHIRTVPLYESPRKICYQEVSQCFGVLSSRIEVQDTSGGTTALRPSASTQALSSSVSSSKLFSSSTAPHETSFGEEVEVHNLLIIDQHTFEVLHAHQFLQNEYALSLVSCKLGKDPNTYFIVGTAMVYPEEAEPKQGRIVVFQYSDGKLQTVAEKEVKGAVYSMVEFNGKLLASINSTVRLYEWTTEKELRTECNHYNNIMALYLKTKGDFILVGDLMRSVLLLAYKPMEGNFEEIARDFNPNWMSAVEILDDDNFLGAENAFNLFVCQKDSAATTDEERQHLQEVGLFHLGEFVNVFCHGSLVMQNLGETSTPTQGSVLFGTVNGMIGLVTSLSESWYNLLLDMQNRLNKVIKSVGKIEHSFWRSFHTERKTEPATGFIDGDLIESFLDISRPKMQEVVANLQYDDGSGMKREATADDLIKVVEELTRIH
For the next assay, the target named is GSPT1 (Homo sapiens, UniProt P15170+Q96SW2). As to the kind of experiment: Prolabel quantification of GSPT1 protein levels in 293GT cells. Particulars: Prolabel assay, read-out: GSPT1 EC50.
Sequence of GSPT1 (P15170 whole entry): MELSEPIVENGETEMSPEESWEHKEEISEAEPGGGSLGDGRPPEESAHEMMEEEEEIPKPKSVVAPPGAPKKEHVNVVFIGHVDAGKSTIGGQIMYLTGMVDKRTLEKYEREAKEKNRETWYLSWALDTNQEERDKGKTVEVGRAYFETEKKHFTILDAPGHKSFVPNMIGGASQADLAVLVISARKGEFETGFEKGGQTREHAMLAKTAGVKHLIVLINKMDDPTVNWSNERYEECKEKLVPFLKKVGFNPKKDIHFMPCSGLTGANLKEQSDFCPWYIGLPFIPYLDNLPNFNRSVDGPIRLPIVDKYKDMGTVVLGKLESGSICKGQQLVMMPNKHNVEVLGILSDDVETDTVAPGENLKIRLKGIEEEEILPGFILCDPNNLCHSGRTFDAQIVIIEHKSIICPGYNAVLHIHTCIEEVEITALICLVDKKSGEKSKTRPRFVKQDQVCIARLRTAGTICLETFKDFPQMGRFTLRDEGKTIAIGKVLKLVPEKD
Sequence of GSPT1 (Q96SW2 whole entry): as the sequence (Q96SW2 whole entry) above
Sequence of GSPT1 (Q16531 whole entry partner): as the sequence (Q16531 whole entry partner) above
Assay [1] concerns primary human regulatory T cells. Put plainly: Expansion of purified primary human Treg cells in the presence of compound. Particulars: FIG. 1. As for the experimental part: (§1) Human buffy coats were obtained from BioreclamationIVT, in the USA. CD4+ T cells were isolated from said buffy coats using the RosetteSep Human CD4+ T cell enrichment Cocktail (Stemcell technologies, USA) and gradient centrifugation over Ficoll Paque Plus (GE HealthCare LifeSciences, USA) as per manufacturer's recommendations. Cells were resuspended in RPMI medium supplemented with 1% penicillin-Streptomycin solution, 10% Fetal Bovine Serum, HEPES (10 mM), MEM NEAA ([…]), sodium pyruvate (1 mM) (all supplements from Thermo Fisher Scientific, USA), thereafter referred to as complete RPMI (cRPMI), and rested overnight at 37° C., 5% CO2 in the presence of 2 U/mL rhIL-2 (Proleukin, Novartis). Cells were collected and resuspended in autoMACS Running Buffer supplemented with BSA (Miltenyi Biotec, USA) and labelled using CD4-FITC antibody (clone RPA-T4), CD25-APC antibody (clone M-A251) (Biolegend) and CD25 Microbeads (Miltenyi Biotec, USA). CD25-enriched cells were then isolated using the autoMACS Pro Separator. A highly purified population of Treg cells was then obtained by further sorting CD4+CD25Hi cells using a Sony SH800 cell sorter. The resulting Treg cell population was routinely above 90% pure according to FOXP3 expression. […]
Cell were collected and counted and the fold expansion was calculated as (number of cells recovered)/(number of cells plated). […]

For assay [2] the test system is unchanged.
Assay [3] shares this test system. As to the kind of experiment: In vitro suppression of the proliferation of CD4+ T cells by expanded Treg cells. The settings on record: five independent donors, vs DMSO, FIG. 3. Here is the method: as §1, with “Separator.” for “Separator. A highly purified population of Treg cells was then obtained by further sorting CD4+CD25Hi cells using a Sony SH800 cell sorter. The resulting Treg cell population was routinely above 90% pure according to FOXP3 expression.”
Primary human PBMCs were obtained from freshly prepared buffy coats (BioReclamationIVT) using gradient centrifugation over Ficoll Paque Plus as per manufacturer's recommendations. […] Proliferation was assessed in each population as the proportion of cells having diluted CFSE. Suppression was assessed for each condition in comparison to the responders plated alone.

Where [4] appears, read: Prolabel assay, 293GT cells; read-out: IKZF2 EC50.
[5] abbreviates: 24 h, 10 μM, 24 h, 293GT cells; read-out: IKZF2 % protein reduction at 10 μM, 24 h.

“Also recorded” adds a separate entry of the source. Like-named read-outs stand apart in the source and are kept apart here. Some results are limits rather than exact numbers.

Sequence of IKZF2 (Q9UKS7 whole entry): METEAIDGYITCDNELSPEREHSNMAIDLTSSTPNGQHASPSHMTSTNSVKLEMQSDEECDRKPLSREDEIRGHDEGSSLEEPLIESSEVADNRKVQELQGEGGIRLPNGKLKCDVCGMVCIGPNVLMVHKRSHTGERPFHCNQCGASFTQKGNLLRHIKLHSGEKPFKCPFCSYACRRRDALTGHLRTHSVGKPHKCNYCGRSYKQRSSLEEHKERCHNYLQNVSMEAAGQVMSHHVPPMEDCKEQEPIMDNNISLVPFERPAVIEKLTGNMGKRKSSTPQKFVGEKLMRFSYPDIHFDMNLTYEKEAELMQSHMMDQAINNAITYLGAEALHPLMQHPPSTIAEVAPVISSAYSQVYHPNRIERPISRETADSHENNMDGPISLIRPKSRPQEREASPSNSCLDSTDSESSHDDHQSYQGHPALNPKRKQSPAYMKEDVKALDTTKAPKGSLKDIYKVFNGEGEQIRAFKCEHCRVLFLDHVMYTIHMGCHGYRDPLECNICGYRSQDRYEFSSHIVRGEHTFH
Sequence of IKZF2 (Q96SW2 whole entry): as the sequence (Q96SW2 whole entry) above
Sequence of IKZF2 (Q16531 whole entry partner): as the sequence (Q16531 whole entry partner) above

Regarding `O=C1CCC(N2Cc3cc(C4CCN(Cc5ccccc5)CC4)ccc3C2=O)C(=O)N1` (stereo not drawn) [Compound I-57, 3-(5-(1-benzylpiperidin-4-yl)-1-oxoisoindolin-2-yl)piperidine-2,6-dione], the “IKZF2 protein levels as compared to the control (DMSO)” value at IKZF2 is reported as “decreased”. Also, the inhibition at 10 µM at IKZF2 (24 h, read-out: IKZF2 % protein reduction at 10 μM, 24 h) came to 70%. The DC50 was 9 nM on IKZF2 (setting [4]), > 50000 nM at IKZF1 and > 50000 nM on GSPT1. The “Treg cells expand less in the presence of compound” value in assay [1] (expanded in vitro 12 days, vs DMSO, compound 10 μM) was found to be 30%. For the same molecule, in assay [1] (purified primary human Treg cells, DMSO control), the “Expansion of purified Treg cells as compared to the control” value is reported as “impaired”. The “Increase of the proportion of cells producing IL-2 (median)” value in assay [2] was 2.16 fold. The “In vitro suppression of the proliferation of CD4+ T cells by expanded Treg cells” value in assay [3] is “impaired; also recorded: less able to repress”.

`O=C1CCC(N2Cc3cc(C4CCN(Cc5ccc(F)c(F)c5)CC4)ccc3C2=O)C(=O)N1` (stereo not drawn) [Compound I-64, 3-(5-(1-(3,4-difluorobenzyl)piperidin-4-yl)-1-oxoisoindolin-2-yl)piperidine-2,6-dione]: the inhibition at 10 µM at IKZF2 (setting [5]) is 75%. Further, the DC50 was 25 nM at IKZF2 (setting [4]), > 30000 nM on IKZF1 and > 30000 nM at GSPT1.

On to `O=C1CCC(N2Cc3cc(C4CCN(Cc5csc(-c6ccccc6)n5)CC4)ccc3C2=O)C(=O)N1` (stereo not drawn) [Compound I-211, 3-(1-oxo-5-(1-((2-phenylthiazol-4-yl)methyl)piperidin-4-yl)isoindolin-2-yl)piperidine-2,6-dione], for which the inhibition at 10 µM at IKZF2 (setting [5]) was determined as 80%. Also, the figures for the DC50 at IKZF2 (setting [4]), on IKZF1 and on GSPT1 were 24 nM, 39 nM and > 30000 nM, respectively.

For the molecule `O=C1CCC(N2Cc3cc(C4CCN(Cc5ccc(-c6ccccc6)cc5)CC4)ccc3C2=O)C(=O)N1` (stereo not drawn) [Compound I-90, 3-(5-(1-([1,1′-biphenyl]-4-ylmethyl)piperidin-4-yl)-1-oxoisoindolin-2-yl)piperidine-2,6-dione], the inhibition at 10 µM at IKZF2 (10 μM, 24 h, 293GT cells; read-out: IKZF2 % protein reduction at 10 μM, 24 h) was 65%. Moreover, the figures for the DC50 at IKZF2 (setting [4]), at IKZF1 and on GSPT1 were 7 nM, > 50000 nM and > 50000 nM, respectively.

On to `CC1(C)CC(c2ccc3c(c2)CN(C2CCC(=O)NC2=O)C3=O)CC(C)(C)N1` (stereo not drawn) [Compound I-171, 3-(1-oxo-5-(2,2,6,6-tetramethylpiperidin-4-yl)isoindolin-2-yl)piperidine-2,6-dione], for which, at IKZF2 (setting [5]), the inhibition at 10 µM was determined as 5%. Besides, the DC50 on IKZF1 and on GSPT1 was > 50000 nM throughout.
